Laboratory results as given in patent US7491819B1 (priority 2004, dated 2009).
Where two headings read alike, the source gives them in different places.

Tested on: HIV-1 303B
Experiment: microbe, parasite or virus in culture
Format: cell-based
Settings: for overall antiviral effect of the two-drug combination with Example 19 (in words): classification from combination indices and confidence intervals; for Combination Indices at 50% HIV Inhibition (Confidence Interval) / Combination Indices at 75% HIV Inhibition (Confidence Interval) / Combination Indices at 90% HIV Inhibition (Confidence Interval): in combination with Example 19, 95% CI in parenthesis
Method: Virus and cell lines. The T-cell line, MT-2, was obtained through the AIDS Research and Reference Reagent Program. MT-2 cells were sub-cultured twice a week in RPMI 1640 medium supplemented with 10% fetal bovine serum, 2 mM L-glutamine, and 10 mM HEPES buffer pH 7.5. The HIV-1303B virus is a molecular clone derived from the NL4-3 strain of HIV-1 that was obtained from the NIH AIDS Research and Reference Reagent Program. For combinations with enfuvirtide, the NL36G virus was used. […] Virus stocks were made by transfecting 293T cells with a proviral DNA clone using LipofectAMINE PLUS (Invitrogen), according to the manufacturer's instructions. Three days post-transfection, virus was harvested and passaged once in MT-2 cells before titration in MT-2 cells.
Chemicals. Example 19, atazanavir, didanosine, stavudine, efavirenz, and enfuvirtide (T-20) were synthesized by Bristol-Myers Squibb using published or known reactions. […] Tenofovir was tested as tenofovir disopoxil fumarate. Zidovudine and zalcitabine were purchased from Sigma, and emtricitabine from Moravek Biochemicals.
Drug Susceptibility and Cytotoxicity Assays. For drug susceptibility assays, MT-2 cells were infected with HIV-1 303B (or NL36G), at an MOI of 0.001, and seeded into 96-well microtiter plates (2.5×10^5 cells/ml) containing serial dilutions of test compounds. […] Each drug ratio consisted of an array of 3-fold serial dilutions, and was performed with eight or more replicas on separate multi-well plates. HIV infected cells were incubated at 37° C. in 5% CO2, and on day five post-infection, the extent of virus replication was measured by determining cell viability using the CellTiter 96 Aqueous Non-Radioactive Cell Proliferation Assay (Promega). […] Cytotoxicity assays were performed in parallel with the combination experiments. Here, uninfected cells were exposed to the same drug combinations, and assayed after five days for cell viability using the MTS assay.
Analysis of Drug Combination Effects. For determination of combination index (CI) values, drugs were diluted in a fixed ratio and multiple ratios were analyzed. The drug serial dilutions spanned a range of concentrations near the EC50 value of each compound, so that equivalent antiviral activities could be compared. The normalized responses from each therapy are fit to the four-parameter logistic model with a common minimum and maximum across all therapies. Conceptually, this equation can be written as
In this equation, Fa stands for “fraction affected,” and represents the fraction of the viral load that has been inactivated. […] The EC50, represented by the Ci in the above equation, is the drug concentration that is expected to reduce the amount of virus by 50%, and the Bi are the parameters that reflects the slope of the concentration-response curve. For this assay, A is the bottom plateau common to all curves, D is the common top plateau, Bj is the “slope” parameter for the jth therapy, and Cj is the concentration that produces an effect equal to the average of A and D for the jth therapy. Therapies 1 and 2 correspond to mono therapies 1 and 2, respectively. Therapies 3, 4, and 5 correspond to the three combination therapies. EC50 values for each drug were determined from the single drug experiments, using the above equation. The equation was fit using a nonlinear regression routine (Proc Nlin) in PC SAS version 8.2 (SAS Institute Inc.).
To assess antiviral effects of different drug combination treatments, combination indices (CIs) were calculated according to Chou and Rideout. The combination index was computed as
In this equation [Dm]1 and [Dm]2 are the concentrations of drugs that would individually produce a specific level of effect, while [D]1 and [D]2 are the concentrations of drugs in combination that would produce the same level of effect.
Theoretically, additivity is implied if the CI is equal to one, synergy if the CI is less than one, and antagonism if the CI is greater than one.

[1] = Human immunodeficiency virus 1, MT2, 120 h
[2] = EC50 ratio Example 19:comparator 1:1
[3] = EC50 ratio Example 19:comparator 1:2.5
[4] = EC50 ratio Example 19:comparator 2.5:1

| Structure (SMILES) | EC50 [1] [nM] | overall antiviral effect of the two-drug combination with Example 19 (in words) | Combination Indices at 50% HIV Inhibition (Confidence Interval) [2] | Combination Indices at 75% HIV Inhibition (Confidence Interval) [2] | Combination Indices at 90% HIV Inhibition (Confidence Interval) [2] | Combination Indices at 50% HIV Inhibition (Confidence Interval) [3] | Combination Indices at 75% HIV Inhibition (Confidence Interval) [3] | Combination Indices at 90% HIV Inhibition (Confidence Interval) [3] | Combination Indices at 50% HIV Inhibition (Confidence Interval) [4] | Combination Indices at 75% HIV Inhibition (Confidence Interval) [4] | Combination Indices at 90% HIV Inhibition (Confidence Interval) [4] | overall antiviral effect of the two-drug combination with Example 19 (in words) (listed as nevaripine) | EC50 (single drug, MT-2 cells, MOI 0.001, day five, MTS cell viability, read-out: EC50) [nM] |
| --- | --- | --- | --- | --- | --- | --- | --- | --- | --- | --- | --- | --- | --- |
| COC(=O)N[C@H](C(=O)N[C@@H](Cc1ccccc1)[C@@H](O)CN(Cc1ccc(-c2ccccn2)cc1)NC(=O)[C@@H](NC(=O)OC)C(C)(C)C)C(C)(C)C [Atazanavir, atazanavir] | 10 | confidence interval is below one at all concentrations and effective levels | 0.87 (0.79, 0.96) | 0.67 (0.55, 0.80) | 0.52 (0.37, 0.67) | 0.65 (0.51, 0.78) | 0.45 (0.31, 0.58) | 0.31 (0.19, 0.44) | 0.78 (0.69, 0.86) | 0.60 (0.54, 0.67) | 0.47 (0.40, 0.54) |  |  |
| Cc1c(O)cccc1C(=O)N[C@@H](CSc1ccccc1)[C@H](O)CN1C[C@H]2CCCC[C@H]2C[C@H]1C(=O)NC(C)(C)C [Nelfinavir, nelfinavir] | 22 | synergistic-additive effect | 0.79 (0.73, 0.86) | 0.75 (0.67, 0.82) | 0.71 (0.56, 0.84) | 0.97 (0.89, 1.06) | 0.87 (0.79, 0.95) | 0.78 (0.68, 0.88) | 1.09 (1.00, 1.18) | 0.98 (0.89, 1.08) | 0.90 (0.76, 1.03) |  |  |
| Cc1cccc(C)c1OCC(=O)N[C@@H](Cc1ccccc1)[C@@H](O)C[C@H](Cc1ccccc1)NC(=O)[C@H](C(C)C)N1CCCNC1=O [Lopinavir, lopinavir] | 17 | additive relationship with Example 19 cannot be ruled out | 0.74 (0.67, 0.82) | 0.77 (0.66, 0.88) |  | 0.77 (0.66, 0.88) | 0.56 (0.36, 0.75) | 0.41 (0.19, 0.64) | 0.76 (0.69, 0.83) | 0.62 (0.55, 0.70) | 0.54 (0.47, 0.61) |  |  |
| Cc1ccnc2c1NC(=O)c1cccnc1N2C1CC1 [Nevirapine, nevirapine] | 95 | synergism at most effective concentrations and molar ratios | 0.72 (0.62, 0.82) | 0.69 (0.55, 0.83) | 0.66 (0.46, 0.87) | 0.76 (0.64, 0.87) | 0.81 (0.64, 0.97) | 0.87 (0.59, 1.15) | 0.73 (0.62, 0.83) | 0.68 (0.55, 0.81) | 0.64 (0.45, 0.84) | strong synergistic effects |  |
| O=C1Nc2ccc(Cl)cc2[C@@](C#CC2CC2)(C(F)(F)F)O1 [Efavirenz, efavirenz] | 1.6 | synergism at most effective concentrations and molar ratios | 0.83 (0.75, 0.92) | 0.76 (0.64, 0.88) | 0.70 (0.54, 0.85) | 0.95 (0.86, 1.04) | 0.93 (0.85, 1.02) | 0.93 (0.79, 1.06) | 1.01 (0.92, 1.10) | 0.96 (0.83, 1.10) | 0.94 (0.73, 1.14) |  |  |
| CC(C)(C)NC(=O)[C@@H]1C[C@@H]2CCCC[C@@H]2CN1C[C@@H](O)[C@H](Cc1ccccc1)NC(=O)[C@H](CC(N)=O)NC(=O)c1ccc2ccccc2n1 [Saquinavir, saquinavir] | 11 | confidence interval is below one at all concentrations and effective levels | 0.77 (0.70, 0.84) | 0.67 (0.58, 0.75) | 0.58 (0.47, 0.69) | 0.43 (0.38, 0.48) | 0.51 (0.42, 0.59) | 0.59 (0.44, 0.74) | 0.81 (0.72, 0.89) | 0.77 (0.66, 0.89) | 0.74 (0.57, 0.91) |  |  |
| C[C@H](Cn1cnc2c(N)ncnc21)OCP(=O)(O)O [Tenofovir, tenofovir] |  | synergistic to additive | 0.66 (0.57, 0.75) | 0.54 (0.45, 0.62) | 0.43 (0.33, 0.53) | 0.68 (0.59, 0.77) | 0.60 (0.48, 0.72) | 0.52 (0.36, 0.69) | 0.90 (0.77, 1.04) | 0.84 (0.67, 1.01) | 0.79 (0.55, 1.03) |  | 18 |
| Cc1cn([C@H]2C[C@H](N=[N+]=[N-])[C@@H](CO)O2)c(=O)[nH]c1=O [Zidovudine] | 12 | synergistic to additive | 0.59 (0.49, 0.69) | 0.56 (0.41, 0.70) | 0.54 (0.36, 0.70) | 0.65 (0.56, 0.75) | 0.73 (0.59, 0.86) | 0.81 (0.57, 1.06) | 0.72 (0.61, 0.83) | 0.83 (0.64, 1.02) | 0.96 (0.63, 1.30) |  |  |
| Nc1nc(=O)n([C@@H]2CS[C@H](CO)O2)cc1F [Emtricitabine, emtricitabine] | 53 | synergistic | 0.31 (0.27, 0.36) | 0.23 (0.18, 0.28) | 0.18 (0.12, 0.24) | 0.31 (0.26, 0.37) | 0.23 (0.19, 0.29) | 0.17 (0.12, 0.28) | 0.33 (0.28, 0.38) | 0.25 (0.20, 0.30) | 0.19 (0.13, 0.25) |  |  |
